Reference: US8618154B2, “LXR modulators” (Bristol-Myers Squibb Company, priority 2009, dated 2013)

Assays:
[1] = system: ABCG1 mRNA in blood cells; assay: In vivo potency and maximum ABCG1 induction in cynomolgus monkey; conditions: po; for EC50: Macaca fascicularis, 5 h
Experimental: Compounds of the present invention were tested for their ability to induce the mRNA for the LXR target gene ABCG1 in blood cells when administered orally to cynomolgus monkeys.
Test compounds were formulated in 0.5% carboxymethyl cellulose (CMC, Sigma) and 2% Tween 80 (Sigma) by trituration. Each treatment group contained three male monkeys, each weighing 3.0-6.0 kg at the start of the study. Test compounds were formulated fresh each morning in vehicle, and animals that had been fasted the previous night were dosed between 7 and 7:30 AM by po gavage. For baseline blood cell mRNA determinations, 1 ml of venous blood was collected in an EDTA dry-coated tube and 1 volume of Dulbecco's Phosphate Buffered Saline without calcium or magnesium and 2 volumes of Nucleic Acid Purification Lysis Solution (Applied Biosystems, Inc.) were added. Samples were frozen at −80° C. prior to RNA isolation and analysis. Test compounds were dosed following the baseline sample collection. At 5 hr post-dose, venous blood was collected and processed as above for RNA determinations. An additional 0.5 ml of blood was also collected and analyzed for compound plasma concentrations.
Frozen samples were allowed to thaw at room temperature, and then placed on ice. Total RNA was isolated on the ABI 6100 using a pre-loaded protocol according to the manufacturer's instructions (ABI Manual #4332809 Rev. B).
qScript cDNA Synthesis Kit from Quanta Biosciences, Inc. was used to generate first-strand cDNA from each total RNA sample. 20 μl Reactions were carried out in 96-well Eppendorf AG twin-tec PCR plates on a MJ Research, Inc. model PTC-200 DNA Engine. Approximately 500 ng of total RNA was used for each reaction. Reactions were composed as follows: 4 μl 5× q-Script Reaction Mix plus 3-5 μl nuclease-free water plus 1 μl q-Script Reverse Transcriptase plus 10-12 μl input RNA. After mixing, reactions were centrifuged at 3750 rpm for 2 minutes at room temperature and run on a “q-Script” protocol (25° C. for 5 minutes, followed by 42° C. for 30 minutes, and then 85° C. for 5 minutes) in a MJ Research thermocycler. Each reaction was diluted with 30 μl of nuclease-free water and used immediately for SYBR-green Q-PCR or stored at −20° C. SYBR-Green Q-PCR reactions were performed as follows. Reaction mixtures for the LXR target gene, ABCG1, and the internal standard normalization gene ribosomal protein L30 were prepared using validated forward/reverse primer sets [ABCG1 (X-Mmul-ABCG1-F1 and X-Mmul-ABCG1-R1); ribosomal protein L30 (SYBR-hL30-F1 and SYBR-hL30-R1)]. […]
The relative amount of ABCG1 mRNA was calculated using the second derivative comparative Ct method (2^−ΔΔCt). Quantification was obtained after normalization to ribosomal protein L30 mRNA. […]

ABCA1 gene expression = assay: Human whole blood assay (hWBA), ABCA1 mRNA induction; type: cell-based; conditions: for Emax: Homo sapiens, 4 h, percent of reference pan agonist (maximal activity defined as 100%), read-out: hWBA hABCA1 L30 Max P (%); for EC50: human whole blood, 4 hours, ABCA1 mRNA normalized to L30, read-out: hWBA hABCA1 L30 EC50
Experimental: Human whole blood was collected in EDTA containing tubes and 0.5 mL aliquots were immediately mixed in a 96 well block with the appropriate serial dilution of test compound, in 0.5% DMSO. Compounds were incubated with blood at 37° C. with constant rocking for 4 hours. After incubation, cells were lysed in ABI Nucleic Acid Purification Lysis Solution (Applied Biosystems catalog #4305895) and frozen at −80° C. Following cell lysis, total RNA was purified using an ABI 6100 RNA prep station according to the protocol provided by the manufacturer. cDNAs were synthesized, and mRNAs were quantitated using SYBR-Green Quantitative PCR (Q-PCR) on an ABI Prism 7900HT Sequence Detection System and reagents from Quanta Bioscience Inc (Quanta Bioscience catalog #95047 and 95055).
The quantity of each mRNA was determined by the ΔΔCT method (Michael W. Pfaffl. A new mathematical model for relative quantification in real-time RT-PCR. Nucleic Acids Research, 2001, Vol. 29, No. 9 e45) and normalized to the quantity of two control mRNAs, i.e. ribosomal protein L-30 (L-30) and beta-2-microglobulin (B2M). The induction of ABCA1 and ABCG1 by test compound was graphed as a percent of the reference compound, 2-(4-(5-(5-cyano-1-(2,4-difluorobenzyl)-6-oxo-4-(trifluoromethyl)-1,6-dihydropyridin-2-yl)thiophen-2-yl)-3-methylphenyl)acetic acid, and potency (EC50) and activity (% MAX) were calculated by fitting a sigmoidal response curve as a function of log transformed compound concentration using XLFit software according to the equation y=A+((B−A)/(1+((C/x)^D))).

Row | SMILES | EC50 [1] [nM] | Emax (ABCA1 gene expression) [%] | EC50 (ABCA1 gene expression) [nM] | Maximum ABCG1 Induction (fold vs. baseline ± S.E.) ([1]; blood cells, 5 hrs post-dose) [fold vs. baseline]
1 | CC(C)(O)c1cn(-c2ccc(-c3cc(F)c(CO)c(S(C)(=O)=O)c3)cc2)c(C(C)(C)c2cccc(F)c2Cl)n1 [Example 4, 2-(2-(2-(2-chloro-3-fluorophenyl)propan-2-yl)-1-(3′-fluoro-4′-(hydroxymethyl)-5′-(methylsulfonyl)biphenyl-4-yl)-1H-imidazol-4-yl)propan-2-ol] | 141 ± 53 | 34 | < 100 | 
2 | CC(C)(O)c1cn(-c2ccc(-c3cc(F)c(CO)c(S(C)(=O)=O)c3)cc2F)c(C(C)(C)c2c(Cl)cccc2Cl)n1 [Example 9, 2-(2-(2-(2,6-dichlorophenyl)propan-2-yl)-1-(3,3′-difluoro-4′-(hydroxymethyl)-5′-(methylsulfonyl)biphenyl-4-yl)-1H-imidazol-4-yl)propan-2-ol] | 11 ± 6 | 28 | < 100 | 
3 | CC(C)(O)c1cn(-c2ccc(-c3cccc(S(C)(=O)=O)c3)cc2)c(C(C)(C)c2ccccc2Cl)n1 [Compound No. 19, Table 1, WO 2007/002563, reference compound] | 630 ± 168 | 55 | > 1000 | 12.4 ± 1.8
